Experimental data taken from patent US8710065B2, “Tricyclic inhibitors of kinases” (AbbVie Inc., priority 2011, dated 2014).

Target: T1, GST-tagged-Wee1 kinase (Homo sapiens, UniProt P30291)
T1 construct: purchased Carnabio (Carna Biosciences) 05-177
Assay: Wee1 time-resolved fluorescence equilibrium binding assay (displacement of Oregon Green-labeled ATP-competitive kinase probe)
Conditions: read-out: Wee-1 inhibition (Ki)
How it was run: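 Time-resolved fluorescence equilibrium binding with GST-Wee1, measuring displacement of a rapidly reversible Oregon Green-labelled ATP-competitive probe by competitive inhibitors; values reported as Ki.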

T1 sequence (P30291 whole entry): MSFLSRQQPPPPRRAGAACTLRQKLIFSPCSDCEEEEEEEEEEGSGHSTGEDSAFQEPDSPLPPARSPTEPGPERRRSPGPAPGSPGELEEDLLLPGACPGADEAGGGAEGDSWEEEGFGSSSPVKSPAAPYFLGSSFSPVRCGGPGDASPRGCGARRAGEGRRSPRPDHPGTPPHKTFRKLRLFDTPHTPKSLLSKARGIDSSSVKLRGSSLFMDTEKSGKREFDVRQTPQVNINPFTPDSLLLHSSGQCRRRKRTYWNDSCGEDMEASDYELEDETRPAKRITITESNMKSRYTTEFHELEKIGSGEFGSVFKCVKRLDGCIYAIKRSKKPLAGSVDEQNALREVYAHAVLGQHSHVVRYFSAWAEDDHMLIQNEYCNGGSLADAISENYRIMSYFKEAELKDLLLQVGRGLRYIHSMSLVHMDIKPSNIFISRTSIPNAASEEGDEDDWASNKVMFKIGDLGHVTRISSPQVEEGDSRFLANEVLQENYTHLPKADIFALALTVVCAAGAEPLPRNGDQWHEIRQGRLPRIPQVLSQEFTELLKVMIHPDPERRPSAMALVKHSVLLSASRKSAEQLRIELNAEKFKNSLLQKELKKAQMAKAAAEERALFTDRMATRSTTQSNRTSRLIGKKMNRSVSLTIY

SMILES	Ki [nM]
O=c1c2cnc(Nc3ccc4snnc4c3)nc2n2ccnc2n1-c1c(Cl)cccc1Cl [Example 181, 2-(1,2,3-benzothiadiazol-5-ylamino)-6-(2,6-dichlorophenyl)imidazo[1,2-a]pyrimido[5,4-e]pyrimidin-5(6H)-one]	10 to 100
COCCN(CCOC)c1ccc(Nc2ncc3c(=O)n(-c4ccccc4Cl)c4nccn4c3n2)cc1 [Example 183, 2-({4-[bis(2-methoxyethyl)amino]phenyl}amino)-6-(2-chlorophenyl)imidazo[1,2-a]pyrimido[5,4-e]pyrimidin-5(6H)-one]	10 to 100
O=c1c2cnc(Nc3ccc(NCCCN4CCOCC4)cc3)nc2n2ccnc2n1-c1ccccc1Cl [Example 189, 6-(2-chlorophenyl)-2-[(4-{[3-(morpholin-4-yl)propyl]amino}phenyl)amino]imidazo[1,2-a]pyrimido[5,4-e]pyrimidin-5(6H)-one]	10 to 100
CN1CCCC1CCNc1ccc(Nc2ncc3c(=O)n(-c4ccccc4Cl)c4nccn4c3n2)cc1 (centres unmarked) [Example 192, 6-(2-chlorophenyl)-2-[(4-{[2-(1-methylpyrrolidin-2-yl)ethyl]amino}phenyl)amino]imidazo[1,2-a]pyrimido[5,4-e]pyrimidin-5(6H)-one]	10 to 100
O=c1c2cnc(Nc3ccc4[nH]ncc4c3)nc2n2ccnc2n1-c1c(Cl)cccc1Cl [Example 194, 6-(2,6-dichlorophenyl)-2-(1H-indazol-5-ylamino)imidazo[1,2-a]pyrimido[5,4-e]pyrimidin-5(6H)-one]	< 10
CC(C)[C@H]1CN(c2ccc(Nc3ncc4c(=O)n(-c5c(Cl)cccc5Cl)c5nccn5c4n3)cc2)CCN1 [Example 195, 6-(2,6-dichlorophenyl)-2-({4-[(3S)-3-(propan-2-yl)piperazin-1-yl]phenyl}amino)imidazo[1,2-a]pyrimido[5,4-e]pyrimidin-5(6H)-one]	< 10
CC(C)CC(N(C)C)C1(c2ccc(Nc3ncc4c(=O)n(-c5c(Cl)cccc5Cl)c5nccn5c4n3)cc2)CCC1 (centres unmarked) [Example 196]	< 10
CNc1nc(C)c(-c2ccc(Nc3ncc4c(=O)n(-c5c(Cl)cccc5Cl)c5nccn5c4n3)cc2)s1 [Example 197, 6-(2,6-dichlorophenyl)-2-({4-[4-methyl-2-(methylamino)-1,3-thiazol-5-yl]phenyl}amino)imidazo[1,2-a]pyrimido[5,4-e]pyrimidin-5(6H)-one]	< 10
O=c1c2cnc(Nc3ccc(N4CCNCC4)nc3)nc2n2ccnc2n1-c1c(Cl)cccc1Cl [Example 198, 6-(2,6-dichlorophenyl)-2-{[6-(piperazin-1-yl)pyridin-3-yl]amino}imidazo[1,2-a]pyrimido[5,4-e]pyrimidin-5(6H)-one]	< 10
O=c1c2cnc(Nc3ccc4cn[nH]c4c3)nc2n2ccnc2n1-c1c(Cl)cccc1Cl [Example 199, 6-(2,6-dichlorophenyl)-2-(1H-indazol-6-ylamino)imidazo[1,2-a]pyrimido[5,4-e]pyrimidin-5(6H)-one]	< 10

Now from value to molecule:

Ki [nM]	SMILES
< 10	CN1C(C)(C)c2ccc(Nc3ncc4c(=O)n(-c5c(Cl)cccc5Cl)c5nccn5c4n3)cc2C1(C)C [Example 177, 6-(2,6-dichlorophenyl)-2-[(1,1,2,3,3-pentamethyl-2,3-dihydro-1H-isoindol-5-yl)amino]imidazo[1,2-a]pyrimido[5,4-e]pyrimidin-5(6H)-one]
< 10	CN1Cc2cc(Nc3ncc4c(=O)n(-c5c(Cl)cccc5Cl)c5nccn5c4n3)ccc2C1(C)C [Example 178, 6-(2,6-dichlorophenyl)-2-[(1,1,2-trimethyl-2,3-dihydro-1H-isoindol-5-yl)amino]imidazo[1,2-a]pyrimido[5,4-e]pyrimidin-5(6H)-one]
< 10	O=C1Nc2ccc(Nc3ncc4c(=O)n(-c5c(Cl)cccc5Cl)c5nccn5c4n3)cc2C[C@@H]2CNC[C@@H]12 [Example 179, (3aS,10aS)-8-{[6-(2,6-dichlorophenyl)-5-oxo-5,6-dihydroimidazo[1,2-a]pyrimido[5,4-e]pyrimidin-2-yl]amino}-2,3,3a,5,10,10a-hexahydropyrrolo[3,4-c][1]benzazepin-4(1H)-one]
< 10	O=C1CCC(c2ccc(Nc3ncc4c(=O)n(-c5c(Cl)cccc5Cl)c5nccn5c4n3)cc2)=NN1 [Example 180, 6-(2,6-dichlorophenyl)-2-{[4-(6-oxo-1,4,5,6-tetrahydropyridazin-3-yl)phenyl]amino}imidazo[1,2-a]pyrimido[5,4-e]pyrimidin-5(6H)-one]
< 10	O=c1c2cnc(Nc3ccc4ncsc4c3)nc2n2ccnc2n1-c1c(Cl)cccc1Cl [Example 182, 2-(1,3-benzothiazol-6-ylamino)-6-(2,6-dichlorophenyl)imidazo[1,2-a]pyrimido[5,4-e]pyrimidin-5(6H)-one]
< 10	O=c1c2cnc(Nc3ccc4c(c3)CCN(C3CC3)CC4)nc2n2ccnc2n1-c1ccccc1Cl [Example 184, 6-(2-chlorophenyl)-2-[(3-cyclopropyl-2,3,4,5-tetrahydro-1H-3-benzazepin-7-yl)amino]imidazo[1,2-a]pyrimido[5,4-e]pyrimidin-5(6H)-one]
< 10	O=c1c2cnc(Nc3ccc4c(c3)CCN(CC(F)F)CC4)nc2n2ccnc2n1-c1ccccc1Cl [Example 185, 6-(2-chlorophenyl)-2-{[3-(2,2-difluoroethyl)-2,3,4,5-tetrahydro-1H-3-benzazepin-7-yl]amino}imidazo[1,2-a]pyrimido[5,4-e]pyrimidin-5(6H)-one]
< 10	CN1CCN(c2ccc(Nc3ncc4c(=O)n(-c5c(F)cc(F)cc5Cl)c5nccn5c4n3)cc2)CC1 [Example 186, 6-(2-chloro-4,6-difluorophenyl)-2-{[4-(4-methylpiperazin-1-yl)phenyl]amino}imidazo[1,2-a]pyrimido[5,4-e]pyrimidin-5(6H)-one]
< 10	CN1Cc2cc(Nc3ncc4c(=O)n(-c5c(F)cc(F)cc5Cl)c5nccn5c4n3)ccc2C(C)(C)C1 [Example 187, 6-(2-chloro-4,6-difluorophenyl)-2-[(2,4,4-trimethyl-1,2,3,4-tetrahydroisoquinolin-7-yl)amino]imidazo[1,2-a]pyrimido[5,4-e]pyrimidin-5(6H)-one]
< 10	CN(C)C1Cc2ccc(Nc3ncc4c(=O)n(-c5c(F)cc(F)cc5Cl)c5nccn5c4n3)cc2C1 (centres unmarked) [Example 188, 6-(2-chloro-4,6-difluorophenyl)-2-{[2-(dimethylamino)-2,3-dihydro-1H-inden-5-yl]amino}imidazo[1,2-a]pyrimido[5,4-e]pyrimidin-5(6H)-one]
< 10	O=c1c2cnc(Nc3ccc(N4CCC(N5CCCC5)CC4)cc3)nc2n2ccnc2n1-c1ccccc1Cl [Example 190, 6-(2-chlorophenyl)-2-({4-[4-(pyrrolidin-1-yl)piperidin-1-yl]phenyl}amino)imidazo[1,2-a]pyrimido[5,4-e]pyrimidin-5(6H)-one]
< 10	CN(C)C1CCN(c2ccc(Nc3ncc4c(=O)n(-c5ccccc5Cl)c5nccn5c4n3)cc2)CC1 [Example 191, 6-(2-chlorophenyl)-2-({4-[4-(dimethylamino)piperidin-1-yl]phenyl}amino)imidazo[1,2-a]pyrimido[5,4-e]pyrimidin-5(6H)-one]
< 10	CN(C)C1CCC(OC(=O)c2ccc(Nc3ncc4c(=O)n(-c5c(Cl)cccc5Cl)c5nccn5c4n3)cc2)CC1 (centres unmarked) [Example 193, 4-(dimethylamino)cyclohexyl 4-{[6-(2,6-dichlorophenyl)-5-oxo-5,6-dihydroimidazo[1,2-a]pyrimido[5,4-e]pyrimidin-2-yl]amino}benzoate]
